Assays:
PI3Kβ = biological target: T1, PI3Kβ (Homo sapiens, UniProt P42338); assay: HTRF in vitro profiling assay for PI3K inhibition (beta isoform); assay type: biochemical; conditions: 200 pM enzyme, 100 uM ATP, 10 uM PIP2, 150 mM NaCl, corrected pIC50, single run or average of two or more runs; for IC50: read-out: PI3K b pIC50 (converted)
T1 construct: made in house
From the text: The PI3-Kinase profiling assays were developed to measure the compound-dependent inhibition of the alpha, beta, delta, and gamma isoforms of PI3Kin an in vitro catalytic assay. This assay was developed and optimized from a kit produced by Upstate (Millipore catalog #33-017). Briefly, this procedure utilizes a pre-formed HTRF (Homogeneous Time-Resolved Fluorescence energy transfer) complex between four binding partners: 1) biotinylated PIP3, 2) GST tagged pleckstrin homology (PH) domain, 3) Europium labeled anti-GST monoclonal antibody, and 4) Streptavidin-Allophycocyanin (APC). The native PIP3 produced by PI 3-Kinase activity displaces biotin-PIP3 from the PH domain, resulting in the dissociation of the HTRF complex and a decrease in the fluorescence signal. The format of this assay is the same for all 4 isoforms of PI3K; the differences lie in the concentration of enzyme used to achieve the most robust signal. The alpha and delta assays are run at 400 pM enzyme; the beta assay is at 200 pM enzyme and the gamma assay is run at 1 nM enzyme. In addition, the alpha, beta and delta assays are run with 150 mM NaCl while the gamma assay is run in the absence of NaCl. The ATP concentration is 100 uM in the alpha, beta, and delta assays and 15 uM ATP in the gamma assay. All reactions are run at 10 uM PIP2
Compounds were serially diluted (3-fold in 100% DMSO) across a 384-well polypropylene mother plate from column 1 to column 12 and column 13 to column 24, to yield 11 concentrations for each test compound. Columns 6 and 18 contain only DMSO. Once titrations were made, 0.054 was transferred to a 384-well low-volume assay plate (Greiner 784076). This assay plate contained three pharmacological controls (known PI3K inhibitors) and 3 assay controls: (1) Enzyme without inhibitor; (2) Buffer minus enzyme, and (3) Buffer minus enzyme plus native PIP3. DMSO was stamped into all wells of columns 6 and 18. PIP3 was added at 40 μM in 1× Reaction buffer (1 μL of 200 μM PIP3) to alternating rows of column 18 (wells 18 B, D, F, H, J, L, N, P). The no-enzyme control reactions were run in wells 18 A, C, E, G, I, K, M, O (0.14 of 100% DMSO).
The PI3-Kinase profiling assay was optimized using the HTRF kit provided by Upstate (Millipore). The assay kit contained seven reagents: 1) 4× Reaction Buffer; 2) native PIP2 (substrate); 3) Stop A (EDTA); 4) Stop B (Biotin-PIP3); 5) Detection Mix A (Streptavidin-APC); 6) Detection Mix B (Eu-labeled Anti-GST plus GST-tagged PH-domain); 7) Detection Mix C (KF). In addition, the following items were obtained or purchased: PI3Kinase (prepared by GSK BR&AD), dithiothreitol (Sigma, D-5545), Adenosine-5′-triphosphate (ATP, Teknova cat. #A0220), native PIP3 (1,2-dioctanoyl-sn-glycero-3-[phosphoinositil-3,4,5-triphosphate]tetraammonium salt (Avanti polar lipids, 850186P), DMSO (Sigma, 472301).
PI3Kinase Reaction Buffer was prepared by diluting the stock 1:4 with de-ionized water. Freshly prepared DTT was added at a final concentration of 5 mM on the day of use. Enzyme addition and compound pre-incubation were initiated by the addition of 2.5 μL of PI3K (at twice its final concentration) in 1× reaction buffer to all wells using a Multidrop Combi. Plates were incubated at room temperature for 15 minutes. Reactions were initiated by addition of 2.5 μL of 2× substrate solution (PIP2 and ATP in 1× reaction buffer) using a Multidrop Combi. Plates were incubated at room temperature for one hour. Reactions were quenched by the addition of 2.5 μL of stop solution (Stop A and Stop B pre-mixed at a ratio of 5:1, respectively) to all wells using the Multidrop Combi. […]

MDA-MB-468 cells = assay: Cell growth inhibition in PTEN-deficient cell line MDA-MB-468 (anchorage independent, Alamar Blue); assay type: cell-based; conditions: Homo sapiens, 144 h, MDA-MB-468, anchorage independent conditions, 6 days incubation, read-out: Prolif EC50 (nM) MDA-MB-468
Method: PTEN deficient tumor cell lines (MDA-MB-468) were cultured generally according to instructions supplied by cell culture supplier American Type Culture Collection, Manassas, Va., with 10% fetal bovine serum at 5% CO2 and 37° C. Cells were seeded into either a T-75 or a T-175 flask 3-4 days prior to 96-well assay plating such that the flasks were approximately 70-80% confluent of the time of harvest. Cells were harvested using 0.25% trypsin-EDTA (Invitrogen #25200056). Trypan Blue exclusion staining was used to determine cell number.
Viable cells were plated in clear, flat bottom 96-well plates (BD #353075) under anchorage independent conditions at 2,000-10,000 cells per well depending on the cell line. To generate anchorage independent growth conditions, a 5% agar stock solution in water was made and autoclaved to melt and sterilize. From the 5% agar solution, a 0.6% agar/media+10% fetal bovine serum (FBS) solution was made to generate a bottom agar layer in the plates to prevent cell attachment. Seventy five microliters per well of the 0.6% agar-media solution was added to the plates. After solidification, a cell solution of 266,870 to 1, 334,022 cells (depending on the cell line) in 10 ml of 0.3% agar/media+10% FBS was made and 75 μl of the cell/media/agar suspension was added to the plates. After the cell layer solidified, 50 μl of media+10% FBS was added to the top of the cells. A 0.3% Brij 35 (Sigma B4184) solution in media+10% FBS was added to column 12 as a background subtraction control. The cells were incubated overnight at 5% CO2 and 37° C. The next day one plate of cells was processed at the time of compound addition to quantify the starting number of cells (T=0 or T0).
To generate the compound titration plates, 15 μl of a 2 mM or 20 μl of a 20 mM solution of the compound of example 31 was diluted in clear bottom polypropylene 96-well plate (BD #351190) using a 10 point, 3-fold titration or a 20 point 2-fold titration, respectively. Three hundred microliters of media was added to the compound dilutions. Ten microliters per well of the serial dilutions was added to the cells and the plates incubated for 6 days at 5% CO2 and 37° C. The final concentration of DMSO in all wells was 0.15% and the highest final concentration of the compound of example 31 was 3.7 μM or 30.7 μM.
Following the 6-day incubation, 20 μl of Alamar Blue (Invitrogen #DAL1100) was added to the cells, incubated at 5% CO2 and 37° C. for 6 hours and the plates read on a Spectramax (Gemini EM) at 530 nm (excitation) and 590 nm (emission) with the auto cut-off disabled. For analysis of cell growth inhibition dose response curves, the data was plotted as the percent of the DMSO-treated control samples (DMSO samples set to 100%). The cellular response was determined for compounds and control compounds by fitting the concentration response with a 4 parameter curve fit using XLfit software and determining the concentration that inhibits 50% of the Ymax-Ymin window (EC50). The EC50 is the midpoint of active compound effect window (between Ymax plateau and Ymin plateau of compound) and represents the concentration of the compound of example 31 where 50% of its maximal effect is observed. Values from wells containing 0.3% Brij 35 (under anchorage independent conditions) were subtracted from all samples for background correction. The compounds listed in Table 3 were tested generally according to the assays described herein. […]

[1] = tested on: phosphorylation of AKT (Ser473) in MDA-MB-468 tumor cells; assay: Inhibition of phosphorylation of AKT in PTEN deficient tumor cell line MDA-MB-468 (MSD Ser473-AKT); assay type: cell-based; conditions: Homo sapiens, 0.5 h; MDA-MB-468 breast cancer cells, 30 minutes compound treatment, Ser473-pAKT normalized to total AKT
Method: Compounds were evaluated for their ability to inhibit downstream phosphorylation of AKT in MDA-MB-468 tumor cells. Breast cancer cells were plated, incubated for approximately 16-20 hours and then treated with compound for 30 minutes. Final DMSO concentration on all cells was 0.15%. The cells were washed with Tris buffer and lysed in MesoScale Discovery (MSD) lysis buffer containing protease and phosphatase inhibitors (included in MSD kit). MSD Ser473-AKT duplex plates (Cat #MS6000) were used according to the manufacturer's instructions and plates were read on a SECTOR™ Imager 6000 using MSD Workbench software. For analysis of the Ser473-pAKT concentration response curves, the data was normalized using the corresponding total AKT value (sum of pAKT and AKT signal) and plotted as the percent of the DMSO-treated control values. The data was fit in Graphpad Prism version 4 for Windows (Graphpad Software, San Diego, Calif.).

T1 sequence (P42338 whole entry, canonical isoform): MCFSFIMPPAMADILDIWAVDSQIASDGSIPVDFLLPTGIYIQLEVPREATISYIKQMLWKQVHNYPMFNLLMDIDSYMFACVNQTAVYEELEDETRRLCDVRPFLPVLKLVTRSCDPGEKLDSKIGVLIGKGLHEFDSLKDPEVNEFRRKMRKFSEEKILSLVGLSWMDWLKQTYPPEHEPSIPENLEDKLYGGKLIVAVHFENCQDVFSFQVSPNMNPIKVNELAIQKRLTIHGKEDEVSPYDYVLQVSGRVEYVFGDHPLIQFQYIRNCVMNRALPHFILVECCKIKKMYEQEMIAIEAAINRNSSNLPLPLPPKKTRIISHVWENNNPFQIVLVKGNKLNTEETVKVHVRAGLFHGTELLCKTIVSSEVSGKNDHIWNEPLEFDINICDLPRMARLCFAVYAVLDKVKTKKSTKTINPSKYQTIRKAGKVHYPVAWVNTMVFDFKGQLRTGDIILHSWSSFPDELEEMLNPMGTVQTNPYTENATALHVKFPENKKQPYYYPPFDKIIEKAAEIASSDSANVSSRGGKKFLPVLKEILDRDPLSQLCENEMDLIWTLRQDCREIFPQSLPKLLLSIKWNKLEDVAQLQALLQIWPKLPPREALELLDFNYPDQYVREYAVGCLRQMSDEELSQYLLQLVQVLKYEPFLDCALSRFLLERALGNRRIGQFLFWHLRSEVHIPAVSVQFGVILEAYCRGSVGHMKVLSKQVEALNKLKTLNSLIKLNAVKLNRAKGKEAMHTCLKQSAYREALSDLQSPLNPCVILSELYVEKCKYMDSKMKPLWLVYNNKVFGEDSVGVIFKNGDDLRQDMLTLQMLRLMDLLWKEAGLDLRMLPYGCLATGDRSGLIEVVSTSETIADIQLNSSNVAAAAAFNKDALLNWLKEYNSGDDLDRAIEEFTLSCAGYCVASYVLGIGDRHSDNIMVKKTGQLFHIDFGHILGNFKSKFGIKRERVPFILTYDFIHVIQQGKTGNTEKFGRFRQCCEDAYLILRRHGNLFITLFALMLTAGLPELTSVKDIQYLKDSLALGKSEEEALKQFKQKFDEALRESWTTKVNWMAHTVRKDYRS
T1 sequence (P27986 whole entry partner, canonical isoform): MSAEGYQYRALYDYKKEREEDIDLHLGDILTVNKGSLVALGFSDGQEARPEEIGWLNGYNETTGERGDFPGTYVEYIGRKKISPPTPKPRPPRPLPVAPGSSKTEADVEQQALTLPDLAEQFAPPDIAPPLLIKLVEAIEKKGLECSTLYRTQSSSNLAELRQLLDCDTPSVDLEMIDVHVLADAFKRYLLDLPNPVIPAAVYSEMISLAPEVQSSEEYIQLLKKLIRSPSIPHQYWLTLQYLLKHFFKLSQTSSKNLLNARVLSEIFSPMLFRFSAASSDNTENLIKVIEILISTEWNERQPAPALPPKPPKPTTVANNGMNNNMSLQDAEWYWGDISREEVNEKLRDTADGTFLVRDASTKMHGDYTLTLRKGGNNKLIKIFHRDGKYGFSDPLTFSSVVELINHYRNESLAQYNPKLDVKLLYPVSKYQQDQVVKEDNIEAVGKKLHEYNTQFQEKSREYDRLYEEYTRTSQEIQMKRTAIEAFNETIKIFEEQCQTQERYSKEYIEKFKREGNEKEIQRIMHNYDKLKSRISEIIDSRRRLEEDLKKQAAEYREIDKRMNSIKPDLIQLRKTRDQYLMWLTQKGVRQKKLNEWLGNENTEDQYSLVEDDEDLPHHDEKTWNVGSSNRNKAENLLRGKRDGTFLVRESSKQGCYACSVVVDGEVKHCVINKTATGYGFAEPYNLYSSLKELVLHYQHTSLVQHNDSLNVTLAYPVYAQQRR

Row | PI3K b pIC50 (PI3Kβ) | EC50 (MDA-MB-468 cells) | IC50 (PI3Kβ) | Structure (SMILES) | IC50 [1]
1 | 8.8 | 18.1 nM | – | Cc1c(Cl)cccc1Cn1c(C)nc2c(C(=O)O)cc(N3CCOCC3)nc21 [Example 5, 3-(3-chloro-2-methylbenzyl)-2-methyl-5-morpholino-3H-imidazo[4,5-b]pyridine-7-carboxylic acid] | 15.9 nM
2 | – | 66.5 nM | 1.58 nM | Cc1nc2c(C(=O)O)cc(N3CCOCC3)nc2n1Cc1cccc2ccccc12 [Example 6, 2-methyl-5-morpholino-3-(naphthalen-1-ylmethyl)-3H-imidazo[4,5-b]pyridine-7-carboxylic acid] | 75.3 nM
3 | – | 1500 nM | 39.8 nM | Cc1nc2ccc(N3CCOCC3)nc2n1Cc1cccc(Cl)c1Cl [Example 8, 4-(3-(2,3-dichlorobenzyl)-2-methyl-3H-imidazo[4,5-b]pyridin-5-yl)morpholine] | 406 nM
4 | – | – | 6.31 nM | Cc1nc2ccc(N3CCOCC3)nc2n1Cc1cccc2ccccc12 [Example 7, 4-(2-methyl-3-(naphthalen-1-ylmethyl)-3H-imidazo[4,5-b]pyridin-5-yl)morpholine] | 126 nM

Further lines, the compound ahead of its results:

Row | Structure (SMILES) | PI3K b pIC50 (PI3Kβ) | EC50 (MDA-MB-468 cells) | IC50 (PI3Kβ) | IC50 [1]
5 | Cc1nc2c(C(=O)O)cc(N3CCOCC3)nc2n1Cc1cccc(Cl)c1Cl [Example 4, 3-(2,3-dichlorobenzyl)-2-methyl-5-morpholino-3H-imidazo[4,5-b]pyridine-7-carboxylic acid] | 8.3 | 153 nM | – | 41.4 nM
6 | Cc1c(Cn2cnc3c(O)cc(N4CCOCC4)nc32)cccc1C(F)(F)F [Example 1, 3-(2-methyl-3-(trifluoromethyl)benzyl)-5-morpholino-3H-imidazo[4,5-b]pyridin-7-ol] | – | – | 1.58 nM | 477 nM
7 | Oc1cc(N2CCOCC2)nc2c1ncn2Cc1cccc2ccccc12 [Example 2, 5-morpholino-3-(naphthalen-1-ylmethyl)-3H-imidazo[4,5-b]pyridin-7-ol] | – | – | 3.16 nM | 578 nM
8 | Cc1c(Cn2c(C)nc3c(C(=O)O)cc(N4CCOCC4)nc32)cccc1C(F)(F)F [Example 3, 2-methyl-3-(2-methyl-3-(trifluoromethyl)benzyl)-5-morpholino-3H-imidazo[4,5-b]pyridine-7-carboxylic acid] | 8.3 | 41 nM | – | 436 nM

— US8906910B2, “Imidazopyridine derivatives as PI3 kinase” (GlaxoSmithKline LLC, priority 2011, dated 2014)
